The values below come from US7872005B2, “2-substituted heteroaryl compounds” (Synta Pharmaceuticals Corporation, priority 2004, dated 2011).

Assay [1] concerns DNBS-induced distal colitis in Wistar derived rats. The experiment in a line: Dinitrobenzene sulfonic acid-induced inflammatory bowel syndrome model rats (distal colitis). Format: in vivo, rat. The settings on record: oral, 24 and 2 hours before DNBS, then daily for 5 days; relative to net increase of vehicle+DNBS group. How it is done: Treatment of Crohn's disease in dinitrobenzene sulfonic acid-induced inflammatory bowel syndrome model rats: Wistar derived male or female rats weighing 200±20 g and fasted for 24 hours were used. Distal colitis was induced by intra-colonic instillation of 2,4-dinitrobenzene sulfonic acid (DNBS, 25 mg in 0.5 mL ethanol 30%) after which air (2 mL) was gently injected through the cannula to ensure that the solution remained in the colon. A test compound and/or vehicle was administered orally 24 and 2 hours before DNBS instillation and then daily for 5 days. One control group was similarly treated with vehicle alone while the other is treated with vehicle plus DNBS. The animals were sacrificed 24 hours after the final dose of test compound administration and each colon was removed and weighed. Colon-to-body weight ratio was then calculated for each animal according to the formula: Colon (g)/BW×100. The “Net” increase in ratio of Vehicle-control+DNBS group relative to Vehicle-control group was used as a base for comparison with test substance treated groups and expressed as “% Deduction.” Pyrimidine compounds of this invention (e.g., Compound 12) reproducibly had about 30% deduction. A 30% or more reduction in colon-to-body weight ratio, relative to the vehicle treated control group, was considered significant.

For assay [2], the system named is adjuvant arthritis (AA) in female Lewis rats. Briefly: Treatment of adjuvant arthritis in rats. Format: in vivo, rat. The settings on record: oral, once a day for 12 days; dose-dependent. How it is done:
A heterocyclic compound can also be evaluated by animal studies. For example, one of such studies involves the ability of a test compound to treat adjuvant arthritis (i.e., a IL-12 overproduction related disorder) in rats.
Treatment of adjuvant arthritis in rats: Adjuvant arthritis (AA) was induced in female Lewis rats by the intracutaneous injection (base of the tail) of 0.1 mL of a 10 mg/mL bacterial suspension made from ground, heat-killed Mycobacterium tuberculosis H37Ra suspended in incomplete Freund's adjuvant. Rats were given a test compound orally once a day for 12 days, starting the day following the induction. The development of polyarthritis was monitored daily by macroscopic inspection and assignment of an arthritis index to each animal, during the critical period (days 10 to 25 post-immunization).
The intensity of polyarthritis was scored according to the following scheme: (a) Grade each paw from 0 to 3 based on erythema, swelling, and deformity of the joints: 0 for no erythema or swelling; 0.5 if swelling is detectable in at least one joint; 1 for mild swelling and erythema; 2 for swelling and erythema of both tarsus and carpus; and 3 for ankylosis and bony deformity. Maximum score for all 4 paws was thus 12. […]

Consider `Cc1cccc(/C=N/Nc2cc(N3CCOCC3)nc(CCOC(=O)Nc3cccc(C(F)(F)F)c3)n2)c1` [Compound 12, (3-Trifluoromethyl-phenyl)-carbamic acid 2-{4-[N′-(3-methyl-benzylidene)-hydrazino]-6-morpholin-4-yl-pyrimidin-2-yl}-ethyl ester], for which the “% Deduction (colon-to-body weight ratio)” value in assay [1] is on record as “about 30%”. Further, in assay [2], the arthritic score result is “reduced the arthritic score” and the development of polyarthritis result is on record as “delayed the development of polyarthritis”.
